According to patent US8604218B2, “Cytoskeletal active rho kinase inhibitor compounds, composition and use” (Inspire Pharmaceuticals, Inc., priority 2006, dated 2013):
pIC50: −log10 of the molar value.

Columns and labels:
ROCK2 = ROCK2 (Homo sapiens (Human), UniProt O75116); assay: Rho Kinase Inhibition Assay (IMAP fluorescence polarization); format: biochemical; settings: isolated enzyme, 10 μM ATP, 60 minutes at room temperature
NIH/3T3 cells = assay: NIH/3T3 Cell Morphology Assay (actin disruption); format: cell-based; settings: 1 μM test compound, 60 minutes at 37° C.; score of actin cytoskeleton disruption from 0 (no effect) to 4 (complete disruption), average of at least 2 determinations
Procedure: NIH/3T3 cells were grown in DMEM-H containing glutamine and 10% Colorado Calf Serum. Cells were passaged regularly prior to reaching confluence. Eighteen to 24 hours prior to experimentation, the cells were plated onto Poly-L-Lysine-coated glass bottom 24-well plates. On the day of experimentation, the cell culture medium was removed and was replaced with the same medium containing from 10 nM to 25 μM of the test compound, and the cells were incubated for 60 minutes at 37° C. The culture medium was then removed and the cells were washed with warmed PBS and fixed for 10 minutes with warmed 4% paraformaldehyde. The cells were permeabilized with 0.5% Triton-X, stained with TRITC-conjugated phalloidin and imaged using a Nikon Eclipse E600 epifluorescent microscope to determine the degree of actin disruption. Results were expressed as a numerical score indicating the observed degree of disruption of the actin cytoskeleton at the test concentration, ranging from 0 (no effect) to 4 (complete disruption), and were the average of at least 2 determinations.
All compounds tested show measurable activity in the cell morphology assay, with most of the compounds providing substantial effects on the actin cytoskeleton at the testing concentration (score of 2 at 1 μM). […] These morphology changes are thought to provide the basis for the beneficial pharmacological effects sought in the setting of the disease processes described in this application, specifically the lowering of elevated IOP in hypertensive eyes via increased outflow through the trabecular meshwork.

ROCK2, sequence (O75116 11-552): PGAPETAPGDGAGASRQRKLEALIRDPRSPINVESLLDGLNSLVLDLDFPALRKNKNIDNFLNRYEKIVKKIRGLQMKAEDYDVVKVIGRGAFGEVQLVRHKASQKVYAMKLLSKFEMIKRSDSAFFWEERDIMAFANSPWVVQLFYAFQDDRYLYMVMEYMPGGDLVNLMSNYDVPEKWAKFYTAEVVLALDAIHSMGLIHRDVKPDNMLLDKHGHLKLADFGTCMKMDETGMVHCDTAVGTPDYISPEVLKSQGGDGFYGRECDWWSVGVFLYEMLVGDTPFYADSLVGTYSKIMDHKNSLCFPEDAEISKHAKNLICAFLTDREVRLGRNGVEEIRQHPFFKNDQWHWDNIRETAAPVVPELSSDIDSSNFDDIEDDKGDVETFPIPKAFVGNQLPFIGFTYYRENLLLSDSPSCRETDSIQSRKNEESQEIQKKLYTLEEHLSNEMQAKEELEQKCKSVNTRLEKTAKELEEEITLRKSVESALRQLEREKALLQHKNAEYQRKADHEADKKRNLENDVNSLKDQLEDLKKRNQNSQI

| SMILES | pIC50 (ROCK2) | Cell score at 1 μM (NIH/3T3 cells) |
| --- | --- | --- |
| CS(=O)(=O)c1ccc(CN2CCCC(Nc3cccc4cnccc34)C2)cc1 (stereo not drawn) [Compound 2.002, N-(1-(4-(methylsulfonyl)benzyl)piperidin-3-yl)isoquinolin-5-amine] | 5.59 | 1.8 |
| CC(=O)Nc1ccc(CN2CCC(Nc3cccc4cnccc34)C2)cc1 (stereo not drawn) [Compound 2.008, N-(4-((3-(isoquinolin-5-ylamino)pyrrolidin-1-yl)methyl)phenyl)acetamide] | 5.44 | 1 |
| Cc1ccc(CN2CC[C@@H](Nc3cccc4cnccc34)C2)cc1 [Compound 2.025, (R)-N-(1-(4-methylbenzyl)pyrrolidin-3-yl)isoquinolin-5-amine] | 7.52 |  |
| CSc1ccc(CN2CC[C@@H](Nc3cccc4cnccc34)C2)cc1 [Compound 2.026, (R)-N-(1-(4-(methylthio)benzyl)pyrrolidin-3-yl)isoquinolin-5-amine] | 5.20 | 2 |
| Cc1ccc(CN2CC[C@H](Nc3cccc4cnccc34)C2)cc1 [Compound 2.028, (S)-N-(1-(4-methylbenzyl)pyrrolidin-3-yl)isoquinolin-5-amine] | 6.10 |  |
| CSc1ccc(CN2CC[C@H](Nc3cccc4cnccc34)C2)cc1 [Compound 2.029, (S)-N-(1-(4-(methylthio)benzyl)pyrrolidin-3-yl)isoquinolin-5-amine] | 5.50 |  |
| OCCOc1cccc(CN2CC[C@H](Nc3cccc4cnccc34)C2)c1 [Compound 2.032, (S)-2-(3-((3-(isoquinolin-5-ylamino)pyrrolidin-1-yl)methyl)phenoxy)ethanol] | 5.27 |  |
| CS(=O)(=O)Nc1cccc(CN2CCC[C@@H](Nc3cccc4cnccc34)C2)c1 [Compound 2.033, (R)-N-(3-((3-(isoquinolin-5-ylamino)piperidin-1-yl)methyl)phenyl)methanesulfonamide] | 5.51 |  |
| O=C(COc1cccc(CN2CC[C@@H](Nc3cccc4cnccc34)C2)c1)N1CCOCC1 [Compound 2.043, (R)-2-(3-((3-(isoquinolin-5-ylamino)pyrrolidin-1-yl)methyl)phenoxy)-1-morpholinoethanone] | 6.42 |  |
| O=C(O)COc1cccc(CN2CC[C@@H](Nc3cccc4cnccc34)C2)c1 [Compound 2.044, (R)-2-(3-((3-(isoquinolin-5-ylamino)pyrrolidin-1-yl)methyl)phenoxy)acetic acid] | 6.36 |  |

Further compounds by rising pIC50 (ROCK2), results first:

| pIC50 (ROCK2) | SMILES | Cell score at 1 μM (NIH/3T3 cells) |
| --- | --- | --- |
| 5.40 | OCCOc1cccc(CN2CCC[C@@H](Nc3cccc4cnccc34)C2)c1 [Compound 2.034, (R)-2-(3-((3-(isoquinolin-5-ylamino)piperidin-1-yl)methyl)phenoxy)ethanol] |  |
| 5.49 | CS(=O)(=O)Nc1cccc(CN2CC[C@H](Nc3cccc4cnccc34)C2)c1 [Compound 2.035, (S)-N-(3-((3-(isoquinolin-5-ylamino)pyrrolidin-1-yl)methyl)phenyl)methanesulfonamide] |  |
| 5.51 | CS(=O)(=O)Nc1cccc(CN2CCC[C@H](Nc3cccc4cnccc34)C2)c1 [Compound 2.037, (S)-N-(3-((3-(isoquinolin-5-ylamino)piperidin-1-yl)methyl)phenyl)methanesulfonamide] |  |
| 5.56 | CC(=O)Nc1ccc(CN2CCC(Nc3ccc4[nH]ncc4c3)C2)cc1 (stereo not drawn) [Compound 1.006, N-(4-((3-(1H-indazol-5-ylamino)pyrrolidin-1-yl)methyl)phenyl)acetamide] | 2 |
| 5.61 | Clc1ccc(CN2CC[C@H](Nc3cccc4cnccc34)C2)cc1 [Compound 2.030, (S)-N-(1-(4-chlorobenzyl)pyrrolidin-3-yl)isoquinolin-5-amine] |  |
| 5.64 | N#Cc1cccc(CN2CCC(Nc3ccc4[nH]ncc4c3)C2)c1 (stereo not drawn) [Compound 1.005, 3-((3-(1H-indazol-5-ylamino)pyrrolidin-1-yl)methyl)benzonitrile] | 1.3 |
| 5.91 | N#Cc1cccc(CN2CCCC(Nc3ccc4[nH]ncc4c3)C2)c1 (stereo not drawn) [Compound 1.002, 3-((3-(1H-indazol-5-ylamino)piperidin-1-yl)methyl)benzonitrile] | 1.4 |
| 6.56 | NC(=O)COc1cccc(CN2CC[C@@H](Nc3cccc4cnccc34)C2)c1 [Compound 2.040, (R)-2-(3-((3-(isoquinolin-5-ylamino)pyrrolidin-1-yl)methyl)phenoxy)acetamide] |  |
| 6.77 | CCS(=O)(=O)Nc1cccc(CN2CC[C@@H](Nc3cccc4cnccc34)C2)c1 [Compound 2.041, (R)-N-(3-((3-(isoquinolin-5-ylamino)pyrrolidin-1-yl)methyl)phenyl)ethanesulfonamide] |  |
| 6.80 | OCCOc1cccc(CN2CCC[C@H](Nc3cccc4cnccc34)C2)c1 [Compound 2.036, (S)-2-(3-((3-(isoquinolin-5-ylamino)piperidin-1-yl)methyl)phenoxy)ethanol] |  |
| 6.92 | Clc1ccc(CN2CC[C@@H](Nc3cccc4cnccc34)C2)cc1 [Compound 2.027, (R)-N-(1-(4-chlorobenzyl)pyrrolidin-3-yl)isoquinolin-5-amine] |  |
| 6.95 | CS(=O)(=O)Nc1cccc(CN2CC[C@@H](Nc3cccc4cnccc34)C2)c1 [Compound 2.038, (R)-N-(3-((3-(isoquinolin-5-ylamino)pyrrolidin-1-yl)methyl)phenyl)methanesulfonamide] |  |
| 7.00 | OCCOc1cccc(CN2CC[C@@H](Nc3cccc4cnccc34)C2)c1 [Compound 2.039, (R)-2-(3-((3-(isoquinolin-5-ylamino)pyrrolidin-1-yl)methyl)phenoxy)ethanol] |  |
| 7.06 | C#Cc1ccc(CN2CC[C@@H](Nc3cccc4cnccc34)C2)cc1 [Compound 2.031, (R)-N-(1-(4-ethynylbenzyl)pyrrolidin-3-yl)isoquinolin-5-amine] |  |
